Patent publication US20250092065A1, “2-(INDAZOL-5-YL)-6-(PIPERIDIN-4-YL)-1,7-NAPHTHYRIDINE DERIVATIVES AND RELATED COMPOUNDS AS MODULATORS FOR SPLICING NUCLEIC ACIDS AND FOR THE TREATMENT OF PROLIFERATIVE DISEASES” (REMIX THERAPEUTICS INC., priority 2022, published 2025)
pIC50: −log10 of the molar value.

Tests used:
[1] = tested on: SMN2 mRNA; assay: RT-qPCR splicing assay, SMN2 mRNA; format: cell-based, human; conditions: Homo sapiens, canonical junction qPCR panel, Table 4; read-out: SMN2 IC50 (decrease in CJ mRNA levels)
How it was run: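 Both isoforms, CJ and AJ, read by qPCR from crude lysates of treated A673 or K562 cells; 24 h, 37 °C, maximum 10 uM. Normalization: housekeeper ΔCt, then DMSO ΔΔCt.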

[2] = tested on: Target C; assay: RT-qPCR canonical junction panel assay, Target C mRNA; format: cell-based; conditions: Table 4, read-out: Target C IC50 (decrease in CJ mRNA levels)
How it was run: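 IC50 is the concentration giving 50% CJ decrease, from a 4-parameter logistic fit of percent response; response derived from ΔΔCt against housekeeper and DMSO over a fixed ΔCt window, with canonical exon-junction qPCR in compound-treated K562 or A673 cells.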

| SMILES | pIC50 [1] | pIC50 [2] |
| --- | --- | --- |
| Cc1cc(-c2ccc3nc(N4CCC(NC(C)(C)C)C4)ccc3n2)nc2cn(C)nc12 (centres unmarked) [Compound 248] | 6.00 to 7.00 | 5.00 to 6.00 |
| COc1c(-c2ccc3nc(N4CCC(NC(C)(C)C)C4)ccc3n2)cc2c[nH]nc2c1C (centres unmarked) [Compound 251] | < 5.00 | < 5.00 |
| Cn1cc2cc(-c3ccc4nc(N5CCC(NC67CC(C6)C7)C5)ccc4n3)c(O)cc2n1 (centres unmarked) [Compound 297, 5-[6-(3-{bicyclo[1.1.1]pentan-1-ylamino}pyrrolidin-1-yl)-1,5-naphthyridin-2-yl]-2-methylindazol-6-ol] | 6.00 to 7.00 | < 5.00 |
| Cc1c(O)c(-c2ccc3nc(N4CCC(NC5COC5)C4)ccc3n2)cc2cn(C)nc12 (centres unmarked) [Compound 302, 2,7-dimethyl-5-{6-[3-(oxetan-3-ylamino)pyrrolidin-1-yl]-1,5-naphthyridin-2-yl}Indazol-6-ol] | > 7.00 | 5.00 to 6.00 |
| Cc1nc2c(C)c(O)c(-c3ccc4nc(N5CCC(NC6(C)CC6)C5)ccc4n3)cc2o1 (centres unmarked) [Compound 309, 2,4-dimethyl-6-(6-{3-[(1-methylcyclopropyl)amino]pyrrolidin-1-yl}-1,5-naphthyridin-2-yl)-1,3-benzoxazol-5-ol] | > 7.00 | > 7.00 |
| Cc1nc2c(C)c(O)c(-c3ccc4nc(N5CCC(NC(C)C)C5)ccc4n3)cc2o1 (centres unmarked) [Compound 312, 6-{6-[3-(isopropylamino)pyrrolidin-1-yl]-1,5-naphthyridin-2-yl}-2,4-dimethyl-1,3-benzoxazol-5-ol] | > 7.00 | > 7.00 |
| Cn1cc2cc(-c3ccc4nc(N5CCC(NC6CCC6)C5)ccc4n3)c(O)c(F)c2n1 (centres unmarked) [Compound 315, 5-{6-[3-(cyclobutylamino)pyrrolidin-1-yl]-1,5-naphthyridin-2-yl}-7-fluoro-2-methylindazol-6-ol] | > 7.00 | > 7.00 |
| Cc1c(O)c(-c2ccc3nc(N4CCC(NC(C)C)C4)ccc3n2)cc2cn(C)nc12 (centres unmarked) [Compound 318, 5-{6-[3-(isopropylamino)pyrrolidin-1-yl]-1,5-naphthyridin-2-yl}-2,7-dimethylindazol-6-ol] | > 7.00 | > 7.00 |
| Cc1c(O)c(-c2ccc3nc(N4CC[C@H](NC(C)C)C4)ccc3n2)cc2cn(C)nc12 [Compound 320] | > 7.00 | > 7.00 |
| Cc1nc2c(F)c(O)c(-c3ccc4nc(N5CCC(NC6(C)CC6)C5)ccc4n3)cc2o1 (centres unmarked) [Compound 325, 4-fluoro-2-methyl-6-(6-{3-[(1-methylcyclopropyl)amino]pyrrolidin-1-yl}-1,5-naphthyridin-2-yl)-1,3-benzoxazol-5-ol] | > 7.00 | > 7.00 |
| Cc1nc2c(F)c(O)c(-c3ccc4nc(N5CCC(NC(C)C)C5)ccc4n3)cc2o1 (centres unmarked) [Compound 328, 4-fluoro-6-{6-[3-(isopropylamino)pyrrolidin-1-yl]-1,5-naphthyridin-2-yl}-2-methyl-1,3-benzoxazol-5-ol] | > 7.00 | > 7.00 |
| CN[C@@H]1CCN(c2ccc3nc(-c4cc(F)c5nc(C)cn5c4)ncc3n2)C1 [Compound 331, (3R)-1-(2-{8-fluoro-2-methylimidazo[1,2-a]pyridin-6-yl}pyrido[3,2-d]pyrimidin-6-yl)-N-methylpyrrolidin-3-amine] | > 7.00 | 6.00 to 7.00 |
| CN[C@H]1CCN(c2ccc3nc(-c4cc(F)c5nc(C)cn5c4)ncc3n2)C1 [Compound 332, (S)-1-(2-(8-fluoro-2-methylimidazo[1,2-a]pyridin-6-yl)pyrido[3,2-d]pyrimidin-6-yl)-N-methylpyrrolidin-3-amine] | > 7.00 | 6.00 to 7.00 |
| CC(C)(C)NC1CCN(c2ccc3nc(-c4cc5oc(C6CC6)nc5cc4O)ccc3n2)C1 (centres unmarked) [Compound 333, 6-{6-[3-(tert-butylamino)pyrrolidin-1-yl]-1,5-naphthyridin-2-yl}-2-cyclopropyl-1,3-benzoxazol-5-ol] | 6.00 to 7.00 | 6.00 to 7.00 |
| COCc1nc2cc(O)c(-c3ccc4nc(N5CCC(NC(C)(C)C)C5)ccc4n3)cc2o1 (centres unmarked) [Compound 334, 6-{6-[3-(tert-butylamino)pyrrolidin-1-yl]-1,5-naphthyridin-2-yl}-2-(methoxymethyl)-1,3-benzoxazol-5-ol] | 6.00 to 7.00 | 6.00 to 7.00 |
| COc1cc2nc(C3COC3)oc2cc1-c1ccc2nc(N3CCC(NC(C)(C)C)C3)ccc2n1 (centres unmarked) [Compound 335] | 5.00 to 6.00 | 5.00 to 6.00 |
| CC(C)(C)NC1CCN(c2ccc3nc(-c4cc5oc(CO)nc5cc4O)ccc3n2)C1 (centres unmarked) [Compound 336, 6-{6-[3-(tert-butylamino)pyrrolidin-1-yl]-1,5-naphthyridin-2-yl}-2-(hydroxymethyl)-1,3-benzoxazol-5-ol] | > 7.00 | 6.00 to 7.00 |
| CNC1CCN(c2ccc3nc(-c4cc5cn(C)nc5c(C)c4O)ncc3n2)C1 (centres unmarked) [Compound 337, 2,7-dimethyl-5-{6-[3-(methylamino)pyrrolidin-1-yl]pyrido[3,2-d]pyrimidin-2-yl}indazol-6-ol] | > 7.00 | < 5.00 |

More lines, now with the values ahead:

| pIC50 [1] | pIC50 [2] | SMILES |
| --- | --- | --- |
| > 7.00 | 6.00 to 7.00 | Cc1nc2c(C)c(O)c(-c3ccc4nc(N5CC[C@@H](NC6CCC6)C5)ccc4n3)cc2o1 [Compound 236] |
| > 7.00 | > 7.00 | Cc1nc2c(C)c(O)c(-c3ccc4nc(N5CC[C@H](NC6CCC6)C5)ccc4n3)cc2o1 [Compound 237] |
| > 7.00 | > 7.00 | Cc1c(O)c(-c2ccc3nc(N4CC[C@@H](NC(C)(C)C)C4)ccc3n2)cc2cn(C)nc12 [Compound 249] |
| > 7.00 | > 7.00 | Cc1c(O)c(-c2ccc3nc(N4CC[C@H](NC(C)(C)C)C4)ccc3n2)cc2cn(C)nc12 [Compound 250] |
| > 7.00 | 6.00 to 7.00 | Cc1cn2nc(-c3ccc4nc(N5CCC(NC6CC6)C5)ccc4n3)c(O)c2c(C)n1 (centres unmarked) [Compound 252] |
| > 7.00 | 6.00 to 7.00 | Cc1c(O)c(-c2ccc3nc(N4CCC(NCC5CC5)C4)ccc3n2)cc2cn(C)nc12 (centres unmarked) [Compound 284, 5-(6-{3-[(cyclopropylmethyl)amino]pyrrolidin-1-yl}-1,5-naphthyridin-2-yl)-2,7-dimethylindazol-6-ol] |
| > 7.00 | 6.00 to 7.00 | Cc1c(O)c(-c2ccc3nc(N4CCC(NC5CCC5)C4)ccc3n2)cc2cn(C)nc12 (centres unmarked) [Compound 288, 5-{6-[3-(cyclobutylamino)pyrrolidin-1-yl]-1,5-naphthyridin-2-yl}-2,7-dimethylindazol-6-ol] |
| > 7.00 | > 7.00 | Cc1nc2c(F)c(O)c(-c3ccc4nc(N5CCC(NC6CCC6)C5)ccc4n3)cc2o1 (centres unmarked) [Compound 293, 6-{6-[3-(cyclobutylamino)pyrrolidin-1-yl]-1,5-naphthyridin-2-yl}-4-fluoro-2-methyl-1,3-benzoxazol-5-ol] |
| > 7.00 | 6.00 to 7.00 | Cn1cc2nc(-c3ccc4nc(N5CCC(NC(C)(C)C)C5)ccc4n3)c(O)cc2n1 (centres unmarked) [Compound 298, 5-{6-[3-(tert-butylamino)pyrrolidin-1-yl]-1,5-naphthyridin-2-yl}-2-methylpyrazolo[4,3-b]pyridin-6-ol] |
| > 7.00 | 5.00 to 6.00 | Cn1cc2cc(-c3ccc4nc(N5CC[C@H](N[C@H]6C[C@@H](F)C6)C5)ccc4n3)c(O)cc2n1 [Compound 299, 2-methyl-5-{6-[(3S)-3-{[(1s,3s)-3-fluorocyclobutyl]amino}pyrrolidin-1-yl]-1,5-naphthyridin-2-yl}indazol-6-ol] |
